For experiment [1], the system named is H+, K+-ATPase. The experiment in a line: Intracellular pH recovery in isolated rat fundic (F1) glands. The format is cell-based. As to conditions: for alkalinization rate of F1 glands: 100 μM secretagogue alone. The procedure:
Male Sprague Dawley rats weighing 200-300 g were housed in climate and humidity controlled, light cycled rooms and fed standard chow with free access to water. Prior to experiments, animals were fasted while allowing free access to water for 18-24 hours to reduce basal acid secretion. Following isoflurane anesthesia the animals were sacrificed, an abdominal incision was made exposing the stomach. After isolating the esophagus and duodenal junctures a total gastrectomy was performed with 1-2 cm of esophagus remaining attached to the gastrectomy. We included the esophageal juncture to have a common landmark for all fundic isolations. While holding the esophagus with forceps approximately 3 mm of fundus was removed with 5 mm of the intact esophagus. The removed fundic tissue was placed in ice cold HEPES-buffered Ringer-solution (pH adjusted to 7.4 at 4° C.) and transferred to the stage of a dissection microscope. The fundic glands were visualized under the microscope at 50× magnification. Glands adjacent to the esophageal junction were hand dissected. Following isolation, individual glands were adhered to cover slips that had been pretreated with the biological adhesive Cell-Tak (Cell-Tak™ cell adhesive, BD Biosciences; Bedford, Mass.) […] Molecular Probes, OR USA)) for 15 minutes. […] Measurements were performed in the epifluorescence mode with 60×/0.80 and 40×/0.90 objectives. […] Data points were acquired every 15 s. […] Acid extrusion was monitored in the absence of bicarbonate. […] All data are summarized as mean±S.E. Significance was determined using the one-way ANOVA test with p<0.05 considered to be statistically significant. All chemicals used were obtained from Sigma and Molecular Probes.

For experiment [2], the target named is T1, H+/K+-ATPase (Rattus norvegicus, UniProt P09626).
T1 construct: Individual glands were isolated using a hand-dissection technique; from tissue; host or cells: hand-dissected gastric glands of Sprague-Dawley rats (corpus/antrum)
T1 sequence (P09626 whole entry): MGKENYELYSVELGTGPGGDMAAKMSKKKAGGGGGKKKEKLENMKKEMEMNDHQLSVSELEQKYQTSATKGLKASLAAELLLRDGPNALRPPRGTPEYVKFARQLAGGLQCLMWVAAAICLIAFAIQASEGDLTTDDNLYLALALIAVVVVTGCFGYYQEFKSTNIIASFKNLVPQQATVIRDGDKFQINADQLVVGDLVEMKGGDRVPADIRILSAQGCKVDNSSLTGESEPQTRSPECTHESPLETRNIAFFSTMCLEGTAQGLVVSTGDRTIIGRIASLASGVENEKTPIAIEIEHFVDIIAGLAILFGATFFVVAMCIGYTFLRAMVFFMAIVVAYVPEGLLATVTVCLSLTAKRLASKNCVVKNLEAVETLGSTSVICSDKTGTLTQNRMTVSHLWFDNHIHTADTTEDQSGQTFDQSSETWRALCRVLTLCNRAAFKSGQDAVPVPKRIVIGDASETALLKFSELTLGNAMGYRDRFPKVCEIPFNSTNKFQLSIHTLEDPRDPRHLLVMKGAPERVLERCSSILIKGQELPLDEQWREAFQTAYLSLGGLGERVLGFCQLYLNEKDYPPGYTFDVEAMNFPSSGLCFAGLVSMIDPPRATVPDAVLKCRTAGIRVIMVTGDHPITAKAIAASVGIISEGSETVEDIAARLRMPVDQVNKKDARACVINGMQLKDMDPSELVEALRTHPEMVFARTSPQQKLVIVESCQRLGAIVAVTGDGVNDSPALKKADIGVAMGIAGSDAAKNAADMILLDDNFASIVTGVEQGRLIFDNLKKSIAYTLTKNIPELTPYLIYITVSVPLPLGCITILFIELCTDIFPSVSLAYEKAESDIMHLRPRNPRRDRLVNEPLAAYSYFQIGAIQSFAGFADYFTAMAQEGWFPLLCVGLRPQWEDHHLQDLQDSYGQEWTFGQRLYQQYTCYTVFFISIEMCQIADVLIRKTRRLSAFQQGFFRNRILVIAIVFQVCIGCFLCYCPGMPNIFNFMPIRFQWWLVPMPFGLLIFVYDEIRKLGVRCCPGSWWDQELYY
T1 sequence (P18598 whole entry partner): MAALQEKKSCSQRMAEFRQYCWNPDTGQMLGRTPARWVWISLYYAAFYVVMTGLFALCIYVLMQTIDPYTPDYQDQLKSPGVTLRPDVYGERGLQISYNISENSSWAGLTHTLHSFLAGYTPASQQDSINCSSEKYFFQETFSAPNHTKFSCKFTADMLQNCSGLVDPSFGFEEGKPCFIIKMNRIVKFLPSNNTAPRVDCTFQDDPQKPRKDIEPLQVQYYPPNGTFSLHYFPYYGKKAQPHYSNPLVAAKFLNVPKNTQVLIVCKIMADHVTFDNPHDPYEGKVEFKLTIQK
Put plainly: Intracellular pH recovery in rat corpus glands (comparison with fundus). The class given is cell-based. The procedure:
Molecular Probes, OR USA)) for 15 minutes. […] Measurements were performed in the epifluorescence mode with 60×/0.80 and 40×/0.90 objectives. […] Data points were acquired every 15 s. […] Acid extrusion was monitored in the absence of bicarbonate. […] All data are summarized as mean±S.E. Significance was determined using the one-way ANOVA test with p<0.05 considered to be statistically significant. All chemicals used were obtained from Sigma and Molecular Probes.

In experiment [3] the target is T1, H+/K+-ATPase. The experiment in a line: Intracellular pH recovery (proton extrusion) in isolated rat gastric glands, NH4Cl prepulse, BCECF. The class given is cell-based. As to the method: Animals. Sprague-Dawley rats 150-250 g (Charles River Laboratory)) were housed in climate- and humidity-controlled, light-cycled rooms, fed standard chow with free access to water, and handled according to the humane practices of animal care established by the Yale Animal Care. Prior to experiments, animals were fasted for 18-24 hours with free access to water.
(§1) Isolation of rat and human gastric Glands. Following removal of the stomach, the stomach was opened longitudinally and the corpus and antrum isolated and sliced into 0.5 cm square sections, and washed with cold Ringer solution to remove residual food particles. The tissues were transferred to the stage of a dissecting microscope. Individual glands were isolated using a hand-dissection technique as described previously^36. Following isolation, individual isolated glands were allowed to adhere to cover slips that had been pre-coated with Cell-Tak (Collaborative Research, Bedford, Mass.) and were transferred to the stage of an inverted microscope.
(§2) Digital imaging for intracellular pH. Isolated gastric glands were incubated in a HEPES-buffered Ringer's solution containing either 10 μmol of the pH-sensitive dye BCECF-AM (2′,7′)-bis-(2-carboxyethyl)-5-(and-6)-carboxy-fluorescin, aceto-methyl ester (Molecular Probes, Eugene, Oreg.) for 10 minutes as described previously^37-39. […] A minimum of 8 cells or regions was selected per gland.
(§3) Proton extrusion by individual parietal cells was monitored by observing recovery of pHi after acid loading the cells with Na^+ free HEPES solution containing 20 mM NH4Cl.
(§4) The recovery rates are expressed as the ΔpH/min, and were calculated over the pH range of 6.5-6.8.

The target of experiment [4] is H+/K+-ATPase (Homo sapiens, UniProt P20648). Put plainly: Intracellular pH recovery (proton extrusion) in isolated human gastric glands. The conditions noted are these: histamine stimulation. The format is cell-based.
Chain of H+/K+-ATPase (Homo sapiens, UniProt P20648) (P20648 whole entry): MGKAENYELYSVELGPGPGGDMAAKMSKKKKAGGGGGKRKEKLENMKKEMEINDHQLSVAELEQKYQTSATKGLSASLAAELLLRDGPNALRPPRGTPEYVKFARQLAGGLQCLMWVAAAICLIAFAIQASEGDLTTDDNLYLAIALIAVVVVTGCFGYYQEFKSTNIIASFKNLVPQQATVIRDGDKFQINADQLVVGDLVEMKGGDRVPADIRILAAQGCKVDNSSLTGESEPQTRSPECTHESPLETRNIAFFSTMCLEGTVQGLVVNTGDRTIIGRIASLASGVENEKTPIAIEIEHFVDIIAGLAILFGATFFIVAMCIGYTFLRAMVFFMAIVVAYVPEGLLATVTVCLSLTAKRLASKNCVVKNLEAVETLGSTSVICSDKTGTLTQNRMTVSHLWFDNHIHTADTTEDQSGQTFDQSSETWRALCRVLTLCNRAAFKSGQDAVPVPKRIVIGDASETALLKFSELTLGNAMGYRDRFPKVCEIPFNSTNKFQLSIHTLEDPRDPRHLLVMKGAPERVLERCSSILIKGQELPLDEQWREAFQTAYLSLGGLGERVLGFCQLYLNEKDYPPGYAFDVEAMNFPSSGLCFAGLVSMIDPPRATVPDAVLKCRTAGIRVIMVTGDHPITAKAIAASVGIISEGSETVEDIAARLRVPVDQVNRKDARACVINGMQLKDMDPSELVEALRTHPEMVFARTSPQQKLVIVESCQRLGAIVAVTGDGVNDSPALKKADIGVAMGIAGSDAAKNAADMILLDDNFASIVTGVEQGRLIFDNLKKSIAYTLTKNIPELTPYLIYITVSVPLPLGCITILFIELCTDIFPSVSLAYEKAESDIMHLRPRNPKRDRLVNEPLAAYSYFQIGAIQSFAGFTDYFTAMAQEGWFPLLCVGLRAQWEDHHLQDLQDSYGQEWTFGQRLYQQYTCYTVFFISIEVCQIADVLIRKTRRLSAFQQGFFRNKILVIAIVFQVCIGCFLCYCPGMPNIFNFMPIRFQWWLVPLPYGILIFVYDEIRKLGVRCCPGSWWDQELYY
Chain of H+/K+-ATPase (Homo sapiens, UniProt P20648) (P51164 whole entry partner): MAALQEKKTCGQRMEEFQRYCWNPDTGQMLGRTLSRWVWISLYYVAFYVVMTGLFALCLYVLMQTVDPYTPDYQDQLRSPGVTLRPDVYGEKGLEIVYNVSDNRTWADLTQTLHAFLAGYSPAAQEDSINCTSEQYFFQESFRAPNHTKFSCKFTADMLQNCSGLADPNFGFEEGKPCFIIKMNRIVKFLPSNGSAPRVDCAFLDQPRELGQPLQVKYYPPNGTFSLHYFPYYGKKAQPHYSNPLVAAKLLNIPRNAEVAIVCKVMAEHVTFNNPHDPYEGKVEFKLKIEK
Excerpt: as §1, §2, §3, §4

Experiment [5] relates to histamine induced gastric acid secretion. Put plainly: Whole stomach pH measurements, ex vivo rat whole stomach preparation. The procedure: Whole stomach pH measurements. Before the experiments animals were fasted for 24 h to reduce basal acid secretion to a consistent minimum. Animals were killed with an overdose of isoflurane and an abdominal incision was made. The stomach was ligated at the duodenal and esophageal junction and excised. Then 1 ml of non buffered, isotonic saline (140 mM) was infused into the lumen of the stomach. […] The stomachs were then placed in either oxygenated HEPES-buffered Ringer solution or in the same solution containing 100 μM histamine alone or additionally 300 μM ZnCl2 (pH 7.4) and maintained at 37° C. After 1 hour the stomach contents were aspirated and the pH was recorded.

In experiment [6] the target is T1, H+/K+-ATPase. The experiment in a line: Oral zinc supplementation in rats, histamine induced proton extrusion of isolated glands. The class given is in vivo. The procedure:
Oral Zinc supplementation in rats. These studies were designed to modulate acid secretion by increasing dietary zinc. In these studies we used an oral ZnCl2 solution (zinc chloride in tap water). The animals had free access to food and the zinc containing water for the duration of the study. […] Animals had free access to water prior to the experiment and were fed with standard chow until 24 hours before the experiment, at which point they had free access to ZnCl2 containing water only. After the 5 days exposure period and the 24 hour fast, the animals were sacrificed and a total gastrectomy was performed on the animals. Individual gastric glands were isolated with the hand dissection technique described above.

The values that follow come from patent US11510894B2, “Fast acting inhibitor of gastric acid secretion” (priority 2006, dated 2022).

Structures are written as SMILES. Values joined by “and” are separate entries in the source; they are usually repeats but may differ in a detail not shown here. Identical values can stand only once. “Also recorded” adds a separate entry of the source.

Regarding `Cc1cccc(C)c1CNc1cc(C(=O)NCCO)cn2c(C)c(C)nc12` [AZD0865], in experiment [1] (omeprazole 200 μM with histamine 100 μM, AZD0865 10 μM), the “inhibition of acid secretion in F1 (fundic) glands, in words” value was “does not completely inhibit proton extrusion”. Besides, in experiment [2] (omeprazole 200 μM, AZD0865 10 μM), the “inhibition of acid secretion in corpus glands, in words” value is “effectively inhibits acid secretion; also recorded: strong inhibition”.
Consider `[Cl-].[Cl-].[Zn+2]` [ZnCl2, zinc chloride], for which the “inhibition of proton extrusion compared to the histamine induced rate” value in experiment [3] (300 μM ZnCl2, 100 μM histamine) stood at 98%. Besides, the “effect on histamine induced proton efflux from gastric glands” value in experiment [3] (300 umol ZnCl2, histamine 100 μM) is on record as “blocked”. Moreover, the “onset of inhibition of histamine induced acid secretion” value in experiment [3] (ZnCl2 300 μM added to superfusion bath, histamine 100 μM) is “abolished after a few seconds”. For the same compound, the “effect on histamine stimulated proton efflux in human gastric glands” value in experiment [4] was “abolished”. Also, the “mean luminal pH” value in experiment [5] (100 μM histamine and 300 μM ZnCl2, 1 hour) turned out to be 4.54±0.065. For the same compound, the “whole stomach pH in words” value in experiment [5] (100 μmol histamine and 300 μmol ZnCl2) was “higher pH than those in HEPES-buffered Ringer solution and histamine”. In addition, the entries for the “histamine induced proton extrusion rate after oral ZnCl2” value in experiment [6] (0.5 mg/kg/d ZnCl2 in drinking water for 5 days) and in experiment [6] (150 mg/kg/d ZnCl2 in drinking water for 5 days) were 0.034±0.0036 and 0.022±0.0045, respectively.
On to `CC(=O)OCC[N+](C)(C)C` [acetylcholine], for which, in experiment [1], the “alkalinization rate of F1 glands” value is 0.075±0.0015 ΔpHi/min.
In the case of `NCCc1c[nH]cn1` [histamine], the “mean luminal pH” value in experiment [5] (100 μM histamine, 1 hour) was 3.15±0.27. Moreover, in experiment [6] (control group, histamine alone, no zinc), the “recovery rate (proton extrusion) of histamine stimulated parietal cells” value stood at 0.051±0.004. The “effect of secretagogue on F1 zone glands in comparison to controls, in words” value in experiment [1] (100 μM) is given as “no effect”. For the same compound, the “alkalinization rate of F1 glands” value in experiment [1] was 0.04±0.0079 ΔpHi/min and 0.042±0.007 ΔpHi/min. The “histamine stimulated proton extrusion rate in corpus gland” value in experiment [2] (100 μM histamine) is 0.056±0.008 ΔpHi/min.
On to `COc1ccc2[nH]c([S+]([O-])Cc3ncc(C)c(OC)c3C)nc2c1` (centres unmarked) [omeprazole], for which the “alkalinization rate of fundic glands” value in experiment [1] (200 μM omeprazole and 100 μM histamine) is given as 0.045±0.002 ΔpHi/min.
